Experimental data: patent US12552766B2, “Pesticidally active azole amide compounds” (SYNGENTA CROP PROTECTION AG, priority 2019, dated 2026)

Legend:
Assay type in all cases: in vivo
[1] = test system: Diabrotica Balteata (Corn Root Worm); experiment: Example B1: Diabrotica balteata, spray on maize sprouts; conditions: 96 h, application rate of 200 ppm, L2 larvae, 4 days after infestation, read-out: control in at least one of the two categories (mortality or growth inhibition)
Method: Maize sprouts placed onto an agar layer in 24-well microtiter plates were treated with aqueous test solutions prepared from 10′000 ppm DMSO stock solutions by spraying. After drying, the plates were infested with L2 larvae (6 to 10 per well). The samples were assessed for mortality and growth inhibition in comparison to untreated samples 4 days after infestation.

[2] = test system: Chilo suppressalis (Striped Rice Stemborer); experiment: Example B4: Chilo suppressalis, artificial diet; conditions: 144 h, application rate of 200 ppm, L2 larvae, 6 days after infestation, read-out: control in at least one of the three categories (mortality, anti-feedant effect, or growth inhibition)
Method: 24-well microtiter plates with artificial diet were treated with aqueous test solutions prepared from 10′000 ppm DMSO stock solutions by pipetting. After drying, the plates were infested with L2 larvae (6-8 per well). The samples were assessed for mortality, anti-feeding effect, and growth inhibition in comparison to untreated samples 6 days after infestation. Control of Chilo suppressalis by a test sample is given when at least one of the categories mortality, anti-feedant effect, and growth inhibition is higher than the untreated sample.

[3] = test system: Plutella xylostella (Diamond Back Moth); experiment: Example B5: Plutella xylostella, artificial diet, 24-well; conditions: 192 h, application rate of 200 ppm, eggs, 8 days after infestation, read-out: control in at least one of the two categories (mortality or growth inhibition)
Method: 24-well microtiter plates with artificial diet were treated with aqueous test solutions prepared from 10′000 ppm DMSO stock solutions by pipetting. After drying, Plutella eggs were pipetted through a plastic stencil onto a gel blotting paper and the plate was closed with it. The samples were assessed for mortality and growth inhibition in comparison to untreated samples 8 days after infestation.

[4] = test system: Spodoptera littoralis (Egyptian Cotton Leaf Worm); experiment: Example B9: Spodoptera littoralis, spray on cotton leaf discs; conditions: foliar, 72 h, application rate of 200 ppm, L1 larvae, 3 days after infestation, read-out: control in at least one of the three categories (mortality, anti-feedant effect, or growth inhibition)
Method: Cotton leaf discs were placed onto agar in 24-well microtiter plates and sprayed with aqueous test solutions prepared from 10′000 ppm DMSO stock solutions. After drying the leaf discs were infested with five L1 larvae. The samples were assessed for mortality, anti-feeding effect, and growth inhibition in comparison to untreated samples 3 days after infestation. Control of Spodoptera littoralis by a test sample is given when at least one of the categories mortality, anti-feedant effect, and growth inhibition is higher than the untreated sample.

[5] = test system: Plutella xylostella (Diamondback Moth); experiment: Example B13: Plutella xylostella, artificial diet, 96-well; conditions: 216 h, application rate of 500 ppm, eggs/L1 larvae, 9 days after infestation
Method: 96-well microtiter plates containing artificial diet were treated with aqueous test solutions, prepared from 10′000 ppm DMSO stock solutions, by a liquid handling robot. After drying, eggs (˜30 per well) were infested onto a netted lid which was suspended above the diet. The eggs hatch and L1 larvae move down to the diet. The samples were assessed for mortality 9 days after infestation.

CC(NC(=O)c1cc(Br)cc(C(F)(F)F)c1)c1nc(Br)nn1-c1ncc(OC(F)F)cn1 (stereo not shown) [Compound P1, 3-bromo-N-[1-[5-bromo-2-[5-(difluoromethoxy)pyrimidin-2-yl]-1,2,4-triazol-3-yl]ethyl]-5-(trifluoromethyl) benzamide]
≥ 80%: percent control (mortality or growth inhibition) at 200 ppm [1] | percent control (mortality, anti-feedant effect or growth inhibition) at 200 ppm [2] | percent control (mortality or growth inhibition) at 200 ppm [3] | percent control (mortality, anti-feedant effect or growth inhibition) at 200 ppm [4] | mortality at 500 ppm [5]

CC(NC(=O)c1cc(OC(F)F)cc(C(F)(F)F)c1)c1nc(Br)nn1-c1ncc(OC(F)F)cn1 (stereo not shown) [Compound P3, N-[1-[5-bromo-2-[5-(difluoromethoxy)pyrimidin-2-yl]-1,2,4-triazol-3-yl]ethyl]-3-(difluoromethoxy)-5-(trifluoromethyl) benzamide]
≥ 80%: percent control (mortality or growth inhibition) at 200 ppm [1] | percent control (mortality, anti-feedant effect or growth inhibition) at 200 ppm [2] | percent control (mortality or growth inhibition) at 200 ppm [3] | percent control (mortality, anti-feedant effect or growth inhibition) at 200 ppm [4] | mortality at 500 ppm [5]

CC(NC(=O)c1cc(OCC(F)(F)F)cc(C(F)(F)F)c1)c1nc(Br)nn1-c1ncc(OC(F)F)cn1 (stereo not shown) [Compound P4, N-[1-[5-bromo-2-[5-(difluoromethoxy)pyrimidin-2-yl]-1,2,4-triazol-3-yl]ethyl]-3-(2,2,2-trifluoroethoxy)-5-(trifluoromethyl) benzamide]
≥ 80%: percent control (mortality or growth inhibition) at 200 ppm [1] | percent control (mortality, anti-feedant effect or growth inhibition) at 200 ppm [2] | percent control (mortality or growth inhibition) at 200 ppm [3] | percent control (mortality, anti-feedant effect or growth inhibition) at 200 ppm [4] | mortality at 500 ppm [5]

CC(NC(=O)c1cc(C(F)F)cc(C(F)(F)F)c1)c1nc(Br)nn1-c1ccc(C#N)cn1 (stereo not shown) [Compound P8, N-[1-[5-bromo-2-(5-cyano-2-pyridyl)-1,2,4-triazol-3-yl]ethyl]-3-(difluoromethyl)-5-(trifluoromethyl) benzamide]
≥ 80%: percent control (mortality or growth inhibition) at 200 ppm [1] | percent control (mortality, anti-feedant effect or growth inhibition) at 200 ppm [2] | percent control (mortality or growth inhibition) at 200 ppm [3] | percent control (mortality, anti-feedant effect or growth inhibition) at 200 ppm [4] | mortality at 500 ppm [5]

CC(NC(=O)c1cc(Br)cc(C(F)(F)F)c1)c1nc(Br)nn1-c1ccc(OC(F)F)cn1 (stereo not shown) [Compound P13, 3-bromo-N-[1-[5-bromo-2-[5-(difluoromethoxy)-2-pyridyl]-1,2,4-triazol-3-yl]ethyl]-5-(trifluoromethyl) benzamide]
≥ 80%: percent control (mortality or growth inhibition) at 200 ppm [1] | percent control (mortality, anti-feedant effect or growth inhibition) at 200 ppm [2] | percent control (mortality or growth inhibition) at 200 ppm [3] | percent control (mortality, anti-feedant effect or growth inhibition) at 200 ppm [4] | mortality at 500 ppm [5]

CC(NC(=O)c1cc(C(F)(F)F)cc(C(F)(F)F)c1)c1nc(Br)nn1-c1ccc(OCC(F)F)cn1 (stereo not shown) [Compound P15, N-[1-[5-bromo-2-[5-(2,2-difluoroethoxy)-2-pyridyl]-1,2,4-triazol-3-yl]ethyl]-3,5-bis(trifluoromethyl) benzamide]
≥ 80%: percent control (mortality or growth inhibition) at 200 ppm [1] | percent control (mortality, anti-feedant effect or growth inhibition) at 200 ppm [2] | percent control (mortality or growth inhibition) at 200 ppm [3] | percent control (mortality, anti-feedant effect or growth inhibition) at 200 ppm [4] | mortality at 500 ppm [5]

CC(NC(=O)c1cc(C(F)(F)F)cc(C(F)(F)F)c1)c1nc(Br)nn1-c1ccc(OCC(F)(F)F)cn1 (stereo not shown) [Compound P17, N-[1-[5-bromo-2-[5-(2,2,2-trifluoroethoxy)-2-pyridyl]-1,2,4-triazol-3-yl]ethyl]-3,5-bis(trifluoromethyl) benzamide]
≥ 80%: percent control (mortality or growth inhibition) at 200 ppm [1] | percent control (mortality, anti-feedant effect or growth inhibition) at 200 ppm [2] | percent control (mortality or growth inhibition) at 200 ppm [3] | percent control (mortality, anti-feedant effect or growth inhibition) at 200 ppm [4] | mortality at 500 ppm [5]

CC(NC(=O)c1cc(Br)cc(C(F)(F)F)c1)c1nc(Br)nn1-c1ncc(OCC(F)F)cn1 (stereo not shown) [Compound P18, 3-bromo-N-[1-[5-bromo-2-[5-(2,2-difluoroethoxy)pyrimidin-2-yl]-1,2,4-triazol-3-yl]ethyl]-5-(trifluoromethyl) benzamide]
≥ 80%: percent control (mortality or growth inhibition) at 200 ppm [1] | percent control (mortality, anti-feedant effect or growth inhibition) at 200 ppm [2] | percent control (mortality or growth inhibition) at 200 ppm [3] | percent control (mortality, anti-feedant effect or growth inhibition) at 200 ppm [4] | mortality at 500 ppm [5]

CC(NC(=O)c1cc(OCC(F)F)cc(C(F)(F)F)c1)c1nc(Br)nn1-c1ncc(OCC(F)(F)F)cn1 (stereo not shown) [Compound P20, N-[1-[5-bromo-2-[5-(2,2,2-trifluoroethoxy)pyrimidin-2-yl]-1,2,4-triazol-3-yl]ethyl]-3-(2,2-difluoroethoxy)-5-(trifluoromethyl) benzamide]
≥ 80%: percent control (mortality, anti-feedant effect or growth inhibition) at 200 ppm [2] | percent control (mortality or growth inhibition) at 200 ppm [3] | percent control (mortality, anti-feedant effect or growth inhibition) at 200 ppm [4] | mortality at 500 ppm [5]

CC(NC(=O)c1cc(OCC(F)F)cc(C(F)(F)F)c1)c1nc(Br)nn1-c1ccc(OC(F)F)cn1 (stereo not shown) [Compound P34, N-[1-[5-bromo-2-[5-(difluoromethoxy)-2-pyridyl]-1,2,4-triazol-3-yl]ethyl]-3-(2,2-difluoroethoxy)-5-(trifluoromethyl) benzamide]
≥ 80%: percent control (mortality or growth inhibition) at 200 ppm [1] | percent control (mortality, anti-feedant effect or growth inhibition) at 200 ppm [2] | percent control (mortality or growth inhibition) at 200 ppm [3] | percent control (mortality, anti-feedant effect or growth inhibition) at 200 ppm [4]

CC(NC(=O)c1cc(OCC(F)F)cc(C(F)(F)F)c1)c1nc(Br)nn1-c1ccc(OCC(F)F)cn1 (stereo not shown) [Compound P36, N-[1-[5-bromo-2-[5-(2,2-difluoroethoxy)-2-pyridyl]-1,2,4-triazol-3-yl]ethyl]-3-(2,2-difluoroethoxy)-5-(trifluoromethyl) benzamide]
≥ 80%: percent control (mortality or growth inhibition) at 200 ppm [3] | percent control (mortality, anti-feedant effect or growth inhibition) at 200 ppm [4] | mortality at 500 ppm [5]

CC(NC(=O)c1cc(OC(F)F)cc(C(F)(F)F)c1)c1nc(Br)nn1-c1ccc(OCC(F)(F)F)cn1 (stereo not shown) [Compound P38, N-[1-[5-bromo-2-[5-(2,2,2-trifluoroethoxy)-2-pyridyl]-1,2,4-triazol-3-yl]ethyl]-3-(difluoromethoxy)-5-(trifluoromethyl) benzamide]
≥ 80%: percent control (mortality or growth inhibition) at 200 ppm [1] | percent control (mortality, anti-feedant effect or growth inhibition) at 200 ppm [2] | percent control (mortality or growth inhibition) at 200 ppm [3] | percent control (mortality, anti-feedant effect or growth inhibition) at 200 ppm [4]

CC(NC(=O)c1cc(C(F)F)cc(C(F)(F)F)c1)c1nc(Br)nn1-c1ccc(OC(F)F)cn1 (stereo not shown) [Compound P51, N-[1-[5-bromo-2-[5-(difluoromethoxy)-2-pyridyl]-1,2,4-triazol-3-yl]ethyl]-3-(difluoromethyl)-5-(trifluoromethyl) benzamide]
≥ 80%: percent control (mortality or growth inhibition) at 200 ppm [1] | percent control (mortality, anti-feedant effect or growth inhibition) at 200 ppm [2] | percent control (mortality or growth inhibition) at 200 ppm [3] | percent control (mortality, anti-feedant effect or growth inhibition) at 200 ppm [4]

CC(NC(=O)c1cc(OCC(F)(F)F)cc(C(F)(F)F)c1)c1nc(Br)nn1-c1ccc(OCC(F)F)cn1 (stereo not shown) [Compound P53, N-[1-[5-bromo-2-[5-(2,2-difluoroethoxy)-2-pyridyl]-1,2,4-triazol-3-yl]ethyl]-3-(2,2,2-trifluoroethoxy)-5-(trifluoromethyl) benzamide]
≥ 80%: percent control (mortality, anti-feedant effect or growth inhibition) at 200 ppm [2] | percent control (mortality or growth inhibition) at 200 ppm [3] | mortality at 500 ppm [5]

CC(NC(=O)c1cc(C(F)F)cc(C(F)(F)F)c1)c1nc(Br)nn1-c1ccc(OCC(F)(F)F)cn1 (stereo not shown) [Compound P54, N-[1-[5-bromo-2-[5-(2,2,2-trifluoroethoxy)-2-pyridyl]-1,2,4-triazol-3-yl]ethyl]-3-(difluoromethyl)-5-(trifluoromethyl) benzamide]
≥ 80%: percent control (mortality or growth inhibition) at 200 ppm [1] | percent control (mortality, anti-feedant effect or growth inhibition) at 200 ppm [2] | percent control (mortality or growth inhibition) at 200 ppm [3] | percent control (mortality, anti-feedant effect or growth inhibition) at 200 ppm [4]

CO/N=C(\C)c1nc(C(C)NC(=O)c2cc(C(F)(F)F)cc(C(F)(F)F)c2)n(-c2ccc(C#N)cn2)n1 (stereo not shown) [Compound P56, N-[1-[2-(5-cyano-2-pyridyl)-5-[(E)-N-methoxy-C-methyl-carbonimidoyl]-1,2,4-triazol-3-yl]ethyl]-3,5-bis(trifluoromethyl) benzamide]
≥ 80%: mortality at 500 ppm [5]
